Test results: patent US20210122763A1, “OGA INHIBITOR COMPOUNDS” (Janssen Pharmaceutica NV, priority 2018, published 2021)

What was measured:
[1] = molecular target: T1, recombinant human Meningioma Expressed Antigen 5 (MGEA5), also referred to as O-GlcNAcase (OGA) (Homo sapiens, UniProt O60502); assay: OGA biochemical assay (inhibition of FM-GlcNAc hydrolysis, fluorescence); settings: for Emax: read-out: Enzymatic Emax (%); for IC50: read-out: Enzymatic hOGA, pIC50 (converted)
T1 construct: Full length OGA enzyme was purchased at OriGene (cat #TP322411); purchased OriGene TP322411
T1 sequence (O60502 1-916): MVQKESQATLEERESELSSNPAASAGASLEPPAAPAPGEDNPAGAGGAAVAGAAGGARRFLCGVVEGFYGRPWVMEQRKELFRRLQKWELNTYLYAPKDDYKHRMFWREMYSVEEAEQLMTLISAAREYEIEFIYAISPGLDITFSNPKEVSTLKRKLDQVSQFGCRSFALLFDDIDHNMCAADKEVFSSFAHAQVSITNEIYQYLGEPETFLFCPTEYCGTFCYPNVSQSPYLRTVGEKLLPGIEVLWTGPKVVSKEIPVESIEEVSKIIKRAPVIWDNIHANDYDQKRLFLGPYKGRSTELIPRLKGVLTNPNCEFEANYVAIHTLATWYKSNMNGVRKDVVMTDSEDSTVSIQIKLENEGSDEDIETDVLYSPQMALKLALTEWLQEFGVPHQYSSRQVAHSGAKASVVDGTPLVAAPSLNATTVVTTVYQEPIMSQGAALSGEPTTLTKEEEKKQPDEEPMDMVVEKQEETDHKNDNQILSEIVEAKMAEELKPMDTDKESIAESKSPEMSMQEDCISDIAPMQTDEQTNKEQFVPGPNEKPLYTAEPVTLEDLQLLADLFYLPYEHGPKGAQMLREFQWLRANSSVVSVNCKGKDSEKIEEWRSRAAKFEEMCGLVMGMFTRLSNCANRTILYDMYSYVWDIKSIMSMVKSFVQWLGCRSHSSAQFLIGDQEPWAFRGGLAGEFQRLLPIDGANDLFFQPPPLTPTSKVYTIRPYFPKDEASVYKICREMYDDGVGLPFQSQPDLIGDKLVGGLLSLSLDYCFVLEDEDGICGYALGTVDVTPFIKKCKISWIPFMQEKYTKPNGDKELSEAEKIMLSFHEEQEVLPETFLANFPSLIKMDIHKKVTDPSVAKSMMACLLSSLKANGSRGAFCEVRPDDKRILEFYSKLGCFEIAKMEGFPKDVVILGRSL
Text: The assay is based on the inhibition of the hydrolysis of fluorescein mono-B-D-N-Acetyl-Glucosamine (FM-GcNAc) (Mariappa et al. 2015, Biochem J470:255) by the recombinant human Meningioma Expressed Antigen 5 (MGEA5), also referred to as O-GlcNAcase (OGA). The hydrolysis FM-GlcNAc (Marker Gene technologies, cat #M1485) results in the formation of B-D-N-glucosamineacetate and fluorescein. The fluorescence of the latter can be measured at excitation wavelength 485 nm and emission wavelength 538 nm. An increase in enzyme activity results in anincrease in fluorescence signal. Full length OGA enzyme was purchased at OriGene (cat #TP322411). The enzyme was stored in 25 mM Tris.HCl, pH 7.3, 100 mM glycine, 10% glycerol at −20° C. Thiamet G and GlcNAcStatin were tested as reference compounds (Yuzwa et al. 2008 Nature Chemical Biology 4:483; Yuzwa et al. 2012 Nature Chemical Biology 8:393). The assay was performed in 200 mM Citrate/phosphate buffer supplemented with 0.005% Tween-20. 35.6 g Na2HPO4 2H2O (Sigma, #C0759) were dissolved in 1 L water to obtain a 200 mM solution. 19.2 g citric acid (Merck, #1.06580) was dissolved in 1 L water to obtain a 100 mM solution. pH of the sodiumphosphate solution was adjusted with the citric acid solution to 7.2. The buffer to stop the reaction consists of a 500 mM Carbonate buffer, pH 11.0. 734 mg FM-GlcNAc were dissolved in 5.48 mL DMSO to obtain a 250 mM solution and was stored at −20° C. OGA was used at a 2 nM concentration and FM-GcNAc at a 100 uM final concentration. Dilutions were prepared in assay buffer.
50 nl of a compound dissolved in DMSO was dispensed on Black Proxiplate™ 384 Plus Assay plates (Perkin Elmer, #6008269) and 3 μl fl-OGA enzyme mix added subsequently. Plates were pre-incubated for 60 min at room temperature and then 2 μl FM-GlcNAc substrate mix added.
Plates were briefly centrifuged for 1 min at 1000 rpm and incubate at room temperature for 6 h. To stop the reaction 5 μl STOP buffer were added and plates centrifuge again 1 min at 1000 rpm. Fluorescence was quantified in the Thermo Scientific Fluoroskan Ascent or the PerkinElmer EnVision with excitation wavelength 485 nm and emission wavelength 538 nm.
For analysis a best-fit curve is fitted by a minimum sum of squares method. From this an IC50 value and Hill coefficient was obtained. High control (no inhibitor) and low control (saturating concentrations of standard inhibitor) were used to define the minimum and maximum values.

[2] = molecular target: T2, OGA (Homo sapiens, UniProt O60502); assay: OGA cellular assay (ICC detection of O-GlcNAcylated proteins in HEK293 cells inducible for P301L mutant human Tau); format: cell-based; settings: 6 hours incubation; for Emax: HEK293, HEK293 cells inducible for P301L mutant human Tau, maximum = Thiamet G 200 uM; for EC50: HEK293 cells inducible for P301L mutant human Tau, read-out: Cellular hOGA, pEC50 (converted)
T2 construct: HEK293 cells inducible for P301L mutant human Tau (isoform 2N4R) were established at Janssen; endogenous in cells; host or cells: HEK293 cells inducible for P301L mutant human Tau (2N4R)
T2 sequence (O60502 1-916): T1 sequence (O60502 1-916)
Protocol: HEK293 cells inducible for P301L mutant human Tau (isoform 2N4R) were established at Janssen. Thiamet-G was used for both plate validation (high control) and as reference compound (reference EC50 assay validation). OGA inhibition is evaluated through the immunocytochemical (ICC) detection of O-GlcNAcylated proteins by the use of a monoclonal antibody (CTD110.6; Cell Signaling, #9875) detecting 0-GlcNAcylated residues as previously described (Dorfmueller et al. 2010 Chemistry & biology, 17:1250). Inhibition of OGA will result in an increase of 0-GlcNAcylated protein levels resulting in an increased signal in the experiment. Cell nuclei are stained with Hoechst to give a cell culture quality control and a rough estimate of immediate compounds toxicity, if any. ICC pictures are imaged with a Perkin Elmer Opera Phenix plate microscope and quantified with the provided software Perkin Elmer Harmony 4.1.
Cells were propagated in DMEM high Glucose (Sigma, #D5796) following standard procedures. 2 days before the cell assay cells are split, counted and seeded in Poly-D-Lysine (PDL) coated 96-wells (Greiner, #655946) plate at a cell density of 12,000 cells per cm^2 (4,000 cells per well) in 100p of Assay Medium (Low Glucose medium is used to reduce basal levels of GlcNAcylation) (Park et al. 2014 The Journal of biological chemistry 289:13519). At the day of compound test medium from assay plates was removed and replenished with 90 μl of fresh Assay Medium. 10 μl of compounds at a 10 fold final concentration were added to the wells. Plates were centrifuged shortly before incubation in the cell incubator for 6 hours. DMSO concentration was set to 0.2%. Medium is discarded by applying vacuum. For staining of cells medium was removed and cells washed once with 100 μl D-PBS (Sigma, #D8537). From next step onwards unless other stated assay volume was always 50p and incubation was performed without agitation and at room temperature. Cells were fixed in 50 μl of a 4% paraformaldehyde (PFA, Alpha aesar, #043368) PBS solution for 15 minutes at room temperature. […] Before analysis samples were washed 2 times manually for 5 minutes in ICC base buffer.
Imaging is performed using Perkin Elmer Phenix Opera using a water 20× objective and recording 9 fields per well. Intensity readout at 488 nm is used as a measure of O-GlcNAcylation level of total proteins in wells. To assess potential toxicity of compounds nuclei were counted using the Hoechst staining. IC50-values are calculated using parametric non-linear regression model fitting. As a maximum inhibition Thiamet G at a 200 uM concentration is present on each plate. In addition, a concentration response of Thiamet G is calculated on each plate.

| Emax [1] [%] | IC50 [1] [µM] | Emax [2] [%] | EC50 [2] [µM] | Compound |
| --- | --- | --- | --- | --- |
| 58 | 6.31 | 2 | > 1 | Cc1cc(OC2CCN([C@H](C)c3ccc4c(n3)OCCO4)CC2)cc(C(F)(F)F)n1 (single isomer, unassigned) [Compound 146] |
| 96 | 0.0251 | 81 | 0.2 | Cc1cc(OC2CCN([C@@H](C)c3ccc4c(n3)OCCO4)CC2)cc(C(F)(F)F)n1 (single isomer, unassigned) [Compound 147] |
| 58 | 6.31 | -2 | > 1 | Cc1cc(OC2CCN([C@@H](C)c3nc4c(cc3F)OCCO4)CC2)cc(C)n1 (single isomer, unassigned) [Compound 149] |
| 101 | 0.0501 | 55 | 0.813 | Cc1cc(OC2CCN(C(C)c3ccc4sc(C)nc4n3)CC2)cc(C(F)(F)F)n1 (stereo not drawn) [Compound 21] |
| 96 | 0.501 | 56 | 0.631 | Cc1cc(OC2CCN(C(C)c3ccc4c(c3)OCCO4)CC2)cc(C)n1 (stereo not drawn) [Compound 25] |
| 99 | 0.1 | 76 | 0.501 | Cc1cc(OC2CCN(C(C)c3ccc4sc(C)nc4n3)CC2)c(Cl)c(C)n1 (stereo not drawn) [Compound 27] |
| 101 | 0.01 | 68 | 0.126 | Cc1cc(O[C@H]2CCN(C(C)c3ccc4c(n3)OCCO4)C[C@H]2C)cc(C)n1 (stereo partly drawn) [Compound 28] |
| 60 | 5.01 | 7 | > 1 | Cc1cc(OC2CCN(C(C)c3cc4c(cn3)OCCO4)CC2)cc(C)n1 (stereo not drawn) [Compound 29] |
| 100 | 0.0158 | 72 | 0.0794 | Cc1cc(OC2CCN(C(C)c3nc4nc(C)sc4cc3F)CC2)cc(C)n1 (stereo not drawn) [Compound 32] |
| 100 | 0.0158 | 65 | 0.251 | Cc1cc(OC2CCN(C(C)c3nc4nc(C)sc4cc3F)CC2)nc(C)n1 (stereo not drawn) [Compound 33] |
| 102 | 0.158 | 77 | 0.158 | Cc1cc(OC2CCN(C(C)c3cnc4c(c3)OCCN4)CC2)cc(C)n1 (stereo not drawn) [Compound 34] |

More lines, now with the values behind:

| Compound | Emax [1] [%] | IC50 [1] [µM] | Emax [2] [%] | EC50 [2] [µM] |
| --- | --- | --- | --- | --- |
| Cc1cc(OC2CCN(C(C)c3nc4c(cc3F)OCCO4)CC2)cc(C)n1 (stereo not drawn) [Compound 4] | 99 | 0.0126 | 76 | 0.0398 |
| Cc1cc(OC2CCN(C(C)c3cnc4c(c3)OCCO4)CC2)cc(C)n1 (stereo not drawn) [Compound 5] | 93 | 1.26 | 22 | > 1 |
| Cc1cc(OC2CCN(C(C)c3nc4c(cc3F)CCO4)CC2)cc(C)n1 (stereo not drawn) [Compound 6] | 101 | 0.00398 | 87 | 0.0174 |
| Cc1cc(OC2CCN(C(C)c3ccc4sc(C)nc4n3)CC2)cc(C)n1 (stereo not drawn) [Compound 7] | 100 | 0.0631 | 71 | 0.398 |
| Cc1cc(OC2CCN(C(C)c3cc4nc(C)sc4cc3F)CC2)cc(C)n1 (stereo not drawn) [Compound 8] | 100 | 0.0158 | 89 | 0.0631 |
| Cc1cc(OC2CCN(C(C)c3nc4c(cc3F)OCCO4)CC2)nc(C)n1 (stereo not drawn) [Compound 12] | 99 | 0.0158 | 74 | 0.0794 |
| Cc1cc(OC2CCN(C(C)c3cnc4c(c3)OCCO4)CC2)nc(C)n1 (stereo not drawn) [Compound 13] | 96 | 0.501 | 8 | > 1 |
| COc1cc(OC2CCN(C(C)c3ccc4c(n3)OCCO4)CC2)cc(C)n1 (stereo not drawn) [Compound 14] | 100 | 0.02 | 82 | 0.126 |
| COc1cc(OC2CCN(C(C)c3nc4c(cc3F)OCCO4)CC2)cc(C)n1 (stereo not drawn) [Compound 15] | 102 | 0.00501 | 72 | 0.0501 |
| COc1cc(OC2CCN(C(C)c3ccc4sc(C)nc4n3)CC2)cc(C)n1 (stereo not drawn) [Compound 16] | 99 | 0.0251 | 91 | 0.126 |
| Cc1cc(OC2CCN(C(C)c3ccc4c(n3)OCCO4)CC2)cc(C(F)(F)F)n1 (stereo not drawn) [Compound 17] | 100 | 0.0398 | 61 | 0.316 |
| Cc1cc(OC2CCN(C(C)c3nc4c(cc3F)OCCO4)CC2)cc(C(F)(F)F)n1 (stereo not drawn) [Compound 18] | 101 | 0.00631 | 79 | 0.0631 |
| Cc1cc(OC2CCN(C(C)c3cnc4c(c3)OCCO4)CC2)cc(C(F)(F)F)n1 (stereo not drawn) [Compound 19] | 92 | 1 | 17 | > 1 |
